# Values quoted from earlier work as cited in patent US7211274B2, “Hair growth formulation” (Hovis SDN BHD, priority 2002, dated 2007).
# Conditions: reported
row,Half life in humans,Substance
1,about 20 hours,tocopherols
2,2 to 4 h,tocotrienols
